Test results taken from patent US20170190671A1, “BIS(ARYL)CATECHOL DERIVATIVES AS HERBICIDES” (E I DU PONT DE NEMOURS AND COMPANY, priority 2014, published 2017).

How the values were obtained:
Assay type in all cases: in vivo
Conditions in all cases: scale 0 to 100
[1] = system: Russian thistle (Salsola kali); experiment: Test D preemergence
Summary of the method: (§1)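 Assessment is visual, relative to untreated controls, 14 to 21 days after application, with 100 meaning complete control. Seeds in silt loam receive preemergence spray; seedlings at the 1- to 4-leaf stage receive postemergence spray.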

[2] = system: bluegrass (annual bluegrass, Poa annua); experiment: Test D preemergence
Summary of the method: as §1

[3] = system: chamomile (scentless chamomile, Matricaria inodora); experiment: Test D preemergence
Summary of the method: as §1

[4] = system: chickweed (common chickweed, Stellaria media); experiment: Test D preemergence
Summary of the method: as §1

[5] = system: cutleaf geranium (Geranium dissectum); experiment: Test D preemergence
Summary of the method: as §1

[6] = system: deadnettle (henbit deadnettle, Lamium amplexicaule); experiment: Test D preemergence
Summary of the method: as §1

[7] = system: field poppy (Papaver rhoeas); experiment: Test D preemergence
Summary of the method: as §1

[8] = system: field violet (Viola arvensis); experiment: Test D preemergence
Summary of the method: as §1

[9] = system: galium (catchweed bedstraw, Galium aparine); experiment: Test D preemergence
Summary of the method: as §1

[10] = system: green foxtail (Setaria viridis); experiment: Test D preemergence
Summary of the method: as §1

kochia (Kochia scoparia) = experiment: Test D preemergence
Summary of the method: as §1

[11] = system: oilseed rape (Brassica napus); experiment: Test D preemergence
Summary of the method: as §1

[12] = system: pigweed (Amaranthus retroflexus); experiment: Test D preemergence
Summary of the method: as §1

[13] = system: spring barley (Hordeum vulgare); experiment: Test D preemergence
Summary of the method: as §1

[14] = system: spring wheat (Triticum aestivum); experiment: Test D preemergence
Summary of the method: as §1

[15] = system: wild buckwheat (Polygonum convolvulus); experiment: Test D preemergence
Summary of the method: as §1

[16] = system: windgrass (Apera spica-venti); experiment: Test D preemergence
Summary of the method: as §1

[17] = system: winter wheat (Triticum aestivum); experiment: Test D preemergence
Summary of the method: as §1

[18] = system: chickweed (common chickweed, Stellaria media); experiment: Test D postemergence
Summary of the method: as §1

[19] = system: downy bromegrass (Bromus tectorum); experiment: Test D postemergence
Summary of the method: as §1

[20] = system: speedwell (bird's-eye speedwell, Veronica persica); experiment: Test D postemergence
Summary of the method: as §1

With `Fc1cnc(Oc2c(F)cccc2Oc2ncc(Cl)cn2)nc1` [Compound 23] the “Plant response rating, Russian Thistle” value ([1]; 16 g ai/ha) was 0, the “Plant response rating, Russian Thistle” value ([1]; 31 g ai/ha) was 0 and the “Plant response rating, Russian Thistle” value ([1]; 62 g ai/ha) was 5. For the same molecule, the “Plant response rating, Russian Thistle” value ([1]; 125 g ai/ha) was 5, the “Plant response rating, Bluegrass” value ([2]; 16 g ai/ha) was 20 and the “Plant response rating, Bluegrass” value ([2]; 31 g ai/ha) was 65. For the same molecule, the “Plant response rating, Bluegrass” value ([2]; 62 g ai/ha) was 80, the “Plant response rating, Bluegrass” value ([2]; 125 g ai/ha) was 100 and the “Plant response rating, Chamomile” value ([3]; 16 g ai/ha) was 20. For the same molecule, the “Plant response rating, Chamomile” value ([3]; 31 g ai/ha) was 75, the “Plant response rating, Chamomile” value ([3]; 62 g ai/ha) was 75 and the “Plant response rating, Chamomile” value ([3]; 125 g ai/ha) was 100. The “Plant response rating, Chickweed” value ([4]; 16 g ai/ha) was 50, the “Plant response rating, Chickweed” value ([4]; 31 g ai/ha) was 100 and the “Plant response rating, Chickweed” value ([4]; 62 g ai/ha) was 100. The “Plant response rating, Chickweed” value ([4]; 125 g ai/ha) was 100, the “Plant response rating, Geranium, Cutleaf” value ([5]; 16 g ai/ha) was 25 and the “Plant response rating, Geranium, Cutleaf” value ([5]; 31 g ai/ha) was 100. The “Plant response rating, Geranium, Cutleaf” value ([5]; 62 g ai/ha) was 100, the “Plant response rating, Geranium, Cutleaf” value ([5]; 125 g ai/ha) was 100 and the “Plant response rating, Deadnettle” value ([6]; 16 g ai/ha) was 15. The “Plant response rating, Deadnettle” value ([6]; 31 g ai/ha) was 65, the “Plant response rating, Deadnettle” value ([6]; 62 g ai/ha) was 80 and the “Plant response rating, Deadnettle” value ([6]; 125 g ai/ha) was 95. For the same molecule, the “Plant response rating, Field Poppy” value ([7]; 16 g ai/ha) was 65, the “Plant response rating, Field Poppy” value ([7]; 31 g ai/ha) was 80 and the “Plant response rating, Field Poppy” value ([7]; 62 g ai/ha) was 90. For the same molecule, the “Plant response rating, Field Poppy” value ([7]; 125 g ai/ha) was 98, the “Plant response rating, Field Violet” value ([8]; 16 g ai/ha) was 25 and the “Plant response rating, Field Violet” value ([8]; 31 g ai/ha) was 25. The “Plant response rating, Field Violet” value ([8]; 62 g ai/ha) was 95, the “Plant response rating, Field Violet” value ([8]; 125 g ai/ha) was 100 and the “Plant response rating, Galium” value ([9]; 16 g ai/ha) was 70. For the same molecule, the “Plant response rating, Galium” value ([9]; 31 g ai/ha) was 75, the “Plant response rating, Galium” value ([9]; 62 g ai/ha) was 95 and the “Plant response rating, Galium” value ([9]; 125 g ai/ha) was 100. The “Plant response rating, Foxtail, Green” value ([10]; 16 g ai/ha) was 0, the “Plant response rating, Foxtail, Green” value ([10]; 31 g ai/ha) was 5 and the “Plant response rating, Foxtail, Green” value ([10]; 62 g ai/ha) was 55. The “Plant response rating, Foxtail, Green” value ([10]; 125 g ai/ha) was 100, the “Plant response rating, Kochia” value (kochia (Kochia scoparia); 16 g ai/ha) was 15 and the “Plant response rating, Kochia” value (kochia (Kochia scoparia); 31 g ai/ha) was 60. The “Plant response rating, Kochia” value (kochia (Kochia scoparia); 62 g ai/ha) was 60, the “Plant response rating, Kochia” value (kochia (Kochia scoparia); 125 g ai/ha) was 100 and the “Plant response rating, Oilseed Rape” value ([11]; 16 g ai/ha) was 80. The “Plant response rating, Oilseed Rape” value ([11]; 31 g ai/ha) was 85, the “Plant response rating, Oilseed Rape” value ([11]; 62 g ai/ha) was 98 and the “Plant response rating, Oilseed Rape” value ([11]; 125 g ai/ha) was 100. For the same molecule, the “Plant response rating, Pigweed” value ([12]; 16 g ai/ha) was 98, the “Plant response rating, Pigweed” value ([12]; 31 g ai/ha) was 100 and the “Plant response rating, Pigweed” value ([12]; 62 g ai/ha) was 100. For the same molecule, the “Plant response rating, Pigweed” value ([12]; 125 g ai/ha) was 100, the “Plant response rating, Barley, Spring” value ([13]; 16 g ai/ha) was 0 and the “Plant response rating, Barley, Spring” value ([13]; 31 g ai/ha) was 5. For the same molecule, the “Plant response rating, Barley, Spring” value ([13]; 62 g ai/ha) was 30, the “Plant response rating, Barley, Spring” value ([13]; 125 g ai/ha) was 75 and the “Plant response rating, Wheat, Spring” value ([14]; 16 g ai/ha) was 0. For the same molecule, the “Plant response rating, Wheat, Spring” value ([14]; 31 g ai/ha) was 5, the “Plant response rating, Wheat, Spring” value ([14]; 62 g ai/ha) was 30 and the “Plant response rating, Wheat, Spring” value ([14]; 125 g ai/ha) was 45. The “Plant response rating, Buckwheat, Wild” value ([15]; 16 g ai/ha) was 40, the “Plant response rating, Buckwheat, Wild” value ([15]; 31 g ai/ha) was 50 and the “Plant response rating, Buckwheat, Wild” value ([15]; 62 g ai/ha) was 100. For the same molecule, the “Plant response rating, Buckwheat, Wild” value ([15]; 125 g ai/ha) was 100, the “Plant response rating, Windgrass” value ([16]; 16 g ai/ha) was 20 and the “Plant response rating, Windgrass” value ([16]; 31 g ai/ha) was 75. The “Plant response rating, Windgrass” value ([16]; 62 g ai/ha) was 98, the “Plant response rating, Windgrass” value ([16]; 125 g ai/ha) was 100 and the “Plant response rating, Wheat, Winter” value ([17]; 16 g ai/ha) was 0. For the same molecule, the “Plant response rating, Wheat, Winter” value ([17]; 31 g ai/ha) was 5, the “Plant response rating, Wheat, Winter” value ([17]; 62 g ai/ha) was 10 and the “Plant response rating, Wheat, Winter” value ([17]; 125 g ai/ha) was 70. For the same molecule, the “Plant response rating, Chickweed” value ([18]; 16 g ai/ha) was 60, the “Plant response rating, Chickweed” value ([18]; 31 g ai/ha) was 70 and the “Plant response rating, Chickweed” value ([18]; 62 g ai/ha) was 70. For the same molecule, the “Plant response rating, Chickweed” value ([18]; 125 g ai/ha) was 80, the “Plant response rating, Bromegrass, Downy” value ([19]; 16 g ai/ha) was 5 and the “Plant response rating, Bromegrass, Downy” value ([19]; 31 g ai/ha) was 10. The “Plant response rating, Bromegrass, Downy” value ([19]; 62 g ai/ha) was 20, the “Plant response rating, Bromegrass, Downy” value ([19]; 125 g ai/ha) was 25 and the “Plant response rating, Speedwell” value ([20]; 16 g ai/ha) was 40. For the same molecule, the “Plant response rating, Speedwell” value ([20]; 31 g ai/ha) was 75, the “Plant response rating, Speedwell” value ([20]; 62 g ai/ha) was 100 and the “Plant response rating, Speedwell” value ([20]; 125 g ai/ha) was 100.
